Results as given in PubChem BioAssay AID504455 (Sanford-Burnham Center for Chemical Genomics, 2011).
pIC50: −log10 of the molar value. Active and inactive are the calls of the source.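 The calls were made as follows: active = compounds whose mean IC50 is below 20 µM; inactive = the rest.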

Target: Apelin receptor (Homo sapiens) (UniProt P35414)
Assay: APJ receptor antagonists, beta-arrestin recruitment, SAR follow-up, cell-based, CHO-K1 AGTRL-1, PathHunter luminescence, set 6 (AID 504455)
Conditions: apelin-13 antagonism

Apelin receptor (Homo sapiens), sequence (P35414 whole entry, looked up): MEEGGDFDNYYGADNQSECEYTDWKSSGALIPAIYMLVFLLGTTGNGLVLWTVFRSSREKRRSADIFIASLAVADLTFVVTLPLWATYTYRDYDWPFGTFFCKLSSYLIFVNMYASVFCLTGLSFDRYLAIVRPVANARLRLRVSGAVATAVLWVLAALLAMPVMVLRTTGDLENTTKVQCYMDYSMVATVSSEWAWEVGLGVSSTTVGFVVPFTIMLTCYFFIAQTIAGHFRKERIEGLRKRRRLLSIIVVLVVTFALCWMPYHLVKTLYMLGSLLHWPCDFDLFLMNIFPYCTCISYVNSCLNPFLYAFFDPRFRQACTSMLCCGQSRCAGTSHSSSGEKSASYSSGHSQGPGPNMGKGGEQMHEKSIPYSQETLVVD

pIC50	IC50	Compound
4.96	–	Cc1ccc(C(=O)Oc2coc(CSc3ncccn3)cc2=O)cc1[N+](=O)[O-]
–	> 79 µM (inactive)	Cc1ccnc(SCc2cc(=O)c(OC(=O)c3ccccc3)co2)n1
5.51	–	Cc1ccnc(SCc2cc(=O)c(OC(=O)c3ccc([N+](=O)[O-])cc3)co2)n1
4.94	–	Cc1ccnc(SCc2cc(=O)c(OC(=O)c3ccc(C#N)cc3)co2)n1
5.01	–	N#Cc1ccc(C(=O)Oc2coc(CSc3ncccn3)cc2=O)cc1
